“Also recorded” adds a separate entry of the source.
Tests used:
TPC-1 cell line [1] = test: Cell viability (MTS assay), TPC-1; type: cell-based, human; settings: small molecule inhibitors Ly294002, U0126, 16 hours
Experimental: (§1) As previously described, Cytoselect™ 96-well cell invasion assay kit was used (Cell Biolabs, San Diego, Calif., USA) to assess cell invasiveness according to the manufacturer's protocol.^46 Briefly, TPC-1, BCPAP and 8305C after transfected with either PDGFRα siRNA or scramble siRNA, 10000 cells were starved overnight and added to the inserts, PDGF-BB was added to some wells at the concentration of 25 ng/mL, PDGF-BB was added 1 h later for inhibitors, sunitinib (0.2 umol/L), Ly294002 (10 umol/L) and (U0126) 2 umol/L, cells were seeded into the insert plate for 16 hours, the invasive cells passed through basement membrane layer to the bottom and dissociated from membrane by the addition of cells detachment buffer, the invasive cells were lysed and followed by quantification using CyQuant GR fluorescent Dye. For cell viability analysis 10000 cells were seeded per well and cultured for 16 hours. MTS assay (Promega, Madison, USA) was then performed in 4 replicates followed manufacturer's instructions. PTC cell lines transfected with PDGFR specific siRNA or scrambled control were plated at a density of 10,000 or 20,000/ml and cultured for 5 days. Cell counts were done on days 2, 3 and 5 using trypan blue (Sigma-Aldrich, Oakville, Canada) and results expressed as total number of viable cells. […] The absorbance was recorded by a BioRad spectrophotometer at day 5 of cell culture.

thyroid cancer = thyroid cancer trials; cited from earlier work
TPC-1 cell line [2] = test: Cytoselect cell invasion assay, TPC-1; type: cell-based, human
Experimental: (§2) As previously described, Cytoselect™ 96-well cell invasion assay kit was used (Cell Biolabs, San Diego, Calif., USA) to assess cell invasiveness according to the manufacturer's protocol.^46 Briefly, TPC-1, BCPAP and 8305C after transfected with either PDGFRα siRNA or scramble siRNA, 10000 cells were starved overnight and added to the inserts, PDGF-BB was added to some wells at the concentration of 25 ng/mL, PDGF-BB was added 1 h later for inhibitors, sunitinib (0.2 umol/L), Ly294002 (10 umol/L) and (U0126) 2 umol/L, cells were seeded into the insert plate for 16 hours, the invasive cells passed through basement membrane layer to the bottom and dissociated from membrane by the addition of cells detachment buffer, the invasive cells were lysed and followed by quantification using CyQuant GR fluorescent Dye. For cell viability analysis 10000 cells were seeded per well and cultured for 16 hours. MTS assay (Promega, Madison, USA) was then performed in 4 replicates followed manufacturer's instructions. PTC cell lines transfected with PDGFR specific siRNA or scrambled control were plated at a density of 10,000 or 20,000/ml and cultured for 5 days. Cell counts were done on days 2, 3 and 5 using trypan blue (Sigma-Aldrich, Oakville, Canada) and results expressed as total number of viable cells. MTS assay was done in 7 replicates as per manufacturer's instructions. The absorbance was recorded by a BioRad spectrophotometer at day 5 of cell culture.

[3] = system: PDGFR-α/β, MAPK/ERK and PI3K/Akt pathways in TPC-1 cells; test: Western blot of PDGFR activation and MAPK/ERK, PI3K/Akt signalling, TPC-1; type: cell-based, human
Experimental: (§3) Primary cell culture and experimental cell lines were maintained in RPMI 1640 media supplemented with 10% FBS. The cells were seeded in a 100-mm culture dish and were grown in a humidified 5% CO2 incubator. For PDGF-BB stimulation (25 ng/ml), cells were grown to about 80% confluence and incubated in serum-free medium overnight prior to each experiment. MAPK/ERK inhibitors U0126 and PD98059 were purchased from Calbiochem (Toronto, Ontario, Canada). PI3K/Akt inhibitor ly294002 was purchased from Cell Signaling Technology (Danvers, Mass., USA). Cells that were treated with inhibitors were given varying concentrations: U0126; 2 umol/L and 10 umol/L; Ly294002 10 umol/L and 25 umol/L; Sunitinib 0.25 umol/L. In all cases, unless otherwise indicated the inhibitors were given to cells and 60 minutes later the PDGF-BB was added to the cultures followed by Western blot analysis.
(§4) Cells were lysed in RIPA buffer [150 mM NaCl, 100 mM Tris (pH 8.0), 1% Triton X-100, 1% deoxycholic acid, 0.1% SDS, 5 mM EDTA, and 10 mM NaF] supplemented with 1 mM sodium vanadate, 2 mM leupeptin, 2 mM aprotinin, 1 mM phenylmethylsulfonyl fluoride (PMSF), 1 mM DTT, 2 mM pepstatin, and 1:100 protease inhibitor cocktail set III on ice. After centrifugation at 4° C. at 18,000 rpf for 15 min, the supernatant was harvested as the total cellular protein extracts and stored at −80° C. The protein concentration was determined using Bio-Rad protein assay reagent (Richmond, Va., USA). Running samples were prepared by adding a sample reducing agent and SDS sample buffer, incubating at 98° C. for 5 min. Aliquots of protein extract samples were separated by SDS-polyacrylamide gel electrophoresis (SDS-PAGE) and transferred to nitrocellulose membrane. Membranes were blocked with 5% nonfat dry milk in 1×TBS containing 0.05% Tween-20 for 60 min, followed by incubation with primary antibodies 4° C. overnight. Protein bands were detected by incubation with horseradish peroxidase-conjugated antibodies (Pierce Biotechnology, Rockford, Ill., USA) and visualized with SuperSignal West Pico chemiluminescence substrate (Thermo Scientific, Rockford, Ill., USA).

[4] = system: PDGFR-α/β, MAPK/ERK and PI3K/Akt pathways in 8305C cells; test: Western blot of PDGFR activation and MAPK/ERK, PI3K/Akt signalling, 8305C; type: cell-based, human
Experimental: as §3, §4

[5] = system: PDGFR-α (phospho-PDGFR), PI3K/Akt and MAPK/ERK pathways; test: Western blot of primary cell culture from metastatic papillary thyroid cancer lymph node, PDGF-BB stimulation; type: cell-based, human
Experimental: as §3, §4

[6] = system: TPC-1, 8305C and BCPAP cell lines; test: Cell growth of PTC cell lines with sunitinib (FIG. 6); type: cell-based, human; settings: all of the cell lines; absence of PDGF-BB stimulation
BCPAP cell line = test: Cytoselect cell invasion assay, BCPAP; type: cell-based, human
Experimental: as §1

8305C cell line = test: Cytoselect cell invasion assay, 8305C; type: cell-based, human
Experimental: as §2

KTC-1 cell line = test: Cytoselect cell invasion assay, KTC-1; type: cell-based, human; settings: KTC-1 (neither subunit); also increasing levels or longer stimulation
TPC-1-derived cell lines = test: Mice xenograft model with shRNA TPC-1-derived cell lines; type: in vivo; settings: mice inoculated with cell lines in Matrigel; 20 days after inoculation; versus other groups
Experimental: To selectively and stably silence the expression of the PDGFR-alpha and-beta receptors in the TPC-1, BCPAP and 8305C cell lines we used the HuSH-29 shRNA Vector system (HuSH-29 shRNA Retroviral Vector Systems; OriGene Technologies, Inc.). Briefly, to silence the expression of the PDGFR-alpha receptor PTC cells were transduced with the pRS shRNA retrovirus system (Puro+) followed by selection in puromycin (2.5 ug/mL). Resistant cells were assessed by western blot to select the sequences that produced the higest levels of protein expression knock-down. The sequences used for these studies were […] (SEQ ID NO: 1) for the TPC-1 cell line and […] (SEQ ID NO: 2) for the 8305C cell line. To selectively knock down the PDGFR-beta receptor were transduced with the pGFP-BR-S shRNA retrovirus system (BSD+) followed by selection in blasticidin (500 ug/mL). Resistant cells were again assessed by western blot to select the sequences that produced the higest levels of protein expression knock-down. […]
The experiments of FIG. 13 depict knock down of PDGFR-alpha or -beta subunit results in opposing effects in tumour formation on a mice xenograft model. […] The average tumour volume (top panel) and tumour weight (bottom panel) was much higher for mice given cell lines expressing only PDGFR-alpha and statistical significance between groups were calculated 20 days after inoculation.

[7] = primary culture, PDGF-BB 25 ng/ml

O=c1cc(N2CCOCC2)oc2c(-c3ccccc3)cccc12 [Ly294002]
cell viability (TPC-1 cell line [1]): not significantly altered

CNC(=O)c1cc(Oc2ccc(NC(=O)Nc3ccc(Cl)c(C(F)(F)F)c3)cc2)ccn1 [Sorafenib, sorafenib]
outcomes (thyroid cancer): favourable outcomes | side-effect profiles (thyroid cancer): acceptable side-effect profiles

N#CC(=C(/N)Sc1ccccc1N)/C(C#N)=C(\N)Sc1ccccc1N [U0126]
cell viability (TPC-1 cell line [1]): not significantly altered | PDGF-BB mediated increases in invasive potential (TPC-1 cell line [2]; TPC-1, U0126 2 umol/L (MAPK/ERK blockade), PDGF-BB 25 ng/mL 1 h later, 16 hours): sufficient to abrogate increases in invasive potential; also recorded: prevents PDGF-BB mediated increases in invasive potential | MAPK/ERK pathway blockade (Western blot) ([3]; PDGF-BB stimulated TPC-1 cells, U0126 2 umol/L and 10 umol/L): decreased protein expression; also recorded: nearly complete

CCN(CC)CCNC(=O)c1c(C)[nH]c(/C=C2\C(=O)Nc3ccc(F)cc32)c1C [sunitinib, Sunitinib malate]
activation of PDGFR-α/β (phospho-PDGFR) ([4]; 8305C, sunitinib 0.25 umol/L, PDGF-BB 25 ng/ml 60 minutes later): completely disrupts PDGFR activation; also recorded: completely blocks activation of PDGFR-α/β | activity in PI3K/Akt and MAPK/ERK pathways ([4]; 8305C, sunitinib 0.25 umol/L, PDGF-BB stimulated): significant decreased activity | outcomes (thyroid cancer): favourable outcomes | side-effect profiles (thyroid cancer): acceptable side-effect profiles | change in invasive potential with PDGF-BB stimulation (TPC-1 cell line [2]; TPC-1, sunitinib 0.2 umol/L, PDGF-BB 25 ng/mL added 1 h later, 16 hours): virtually completely abates any change in invasive potential; also recorded: abated any change in invasive potential | invasive potential without PDGF-BB stimulation (TPC-1 cell line [2]; TPC-1, sunitinib 0.2 umol/L, no PDGF-BB): does not alter invasive potential | activation of PDGFR-α/β (phospho-PDGFR) ([3]; TPC-1, sunitinib 0.25 umol/L, PDGF-BB 25 ng/ml 60 minutes later): completely disrupts PDGFR activation; also recorded: completely blocks activation of PDGFR-α/β | activity in PI3K/Akt and MAPK/ERK pathways ([3]; TPC-1, sunitinib 0.25 umol/L, PDGF-BB stimulated): significant decreased activity | activation of PDGFR (phospho-PDGFR) and downstream PI3K/Akt and MAPK/ERK pathways by PDGF-BB ([5]; sunitinib 0.25 umol/L given 60 minutes before PDGF-BB 25 ng/ml, semi-quantitative Western blot): can be blocked; also recorded: completed blocked | effect on cell growth [6]: not significant | invasive potential without PDGF-BB stimulation (BCPAP cell line; BCPAP, sunitinib 0.2 umol/L, no PDGF-BB): does not alter invasive potential | change in invasive potential with PDGF-BB stimulation (8305C cell line; 8305C, sunitinib 0.2 umol/L, PDGF-BB 25 ng/mL added 1 h later, 16 hours): virtually completely abates any change in invasive potential; also recorded: abated any change in invasive potential | invasive potential without PDGF-BB stimulation (8305C cell line; 8305C, sunitinib 0.2 umol/L, no PDGF-BB): does not alter invasive potential

PDGF-BB: PDGFR ligand known to bind all subunits of PDGFR, purchased from GIBCO
phospho-ERK ([4]; 8305C (BRAF mutation, MAPK/ERK constitutively activated), PDGF-BB): small increase | phospho-PDGFR-α/β, phospho-Akt, and phospho-ERK ([4]; 8305C, PDGF-BB 25 ng/ml): strong up-regulation | invasive potential on PDGF-BB stimulation (TPC-1 cell line [2]; TPC-1 (PDGFR-α and -β), PDGF-BB 25 ng/mL): significant increase in invasive potential; also recorded: increased invasive potential | phospho-PDGFR-α/β, phospho-Akt, and phospho-ERK ([3]; TPC-1, PDGF-BB 25 ng/ml): strong up-regulation | time of return of levels to baseline ([3]; TPC-1, PDGF-BB stimulation): ~60 min | time to increases in phospho-PDGFR-α/β, phospho-Akt and phospho-ERK ([3]; TPC-1, PDGF-BB stimulation): ≤ 5 min | time to maximal activation of both pathways ([3]; TPC-1, PDGF-BB stimulation): ≤ 15 min | phospho-Akt (PI3K/Akt pathway) [5, 7]: significant increases | phospho-ERK (MAPK/ERK pathway) [5, 7]: small increase | phospho-PDGFR [5, 7]: activated PDGFR-α | invasive potential on PDGF-BB stimulation (KTC-1 cell line): did not exhibit any change in invasive potential | invasive potential on PDGF-BB stimulation (BCPAP cell line; BCPAP (PDGFR-β only), PDGF-BB 25 ng/mL): did not exhibit any change in invasive potential | invasive potential on PDGF-BB stimulation (8305C cell line; 8305C (PDGFR-α only), PDGF-BB 25 ng/mL): significant increase in invasive potential; also recorded: increased invasive potential

TGCCTCCGACGAGATCTATGAGATCATGC (SEQ ID NO: 3) (listed as Homo sapiens) [sh PDGFR-beta, shRNA (pGFP-BR-S retrovirus system) knocking down PDGFR-beta in TPC-1; cells then express only PDGFR-alpha]
average tumour volume (TPC-1-derived cell lines): much higher | tumour weight (TPC-1-derived cell lines): much higher
